Test results reported in patent publication US10329289B2, “6,7-dihydro-5H-pyrrolo[3,4-B]pyridin-5-one allosteric modulators of the M4 muscarinic acetylcholine receptor” (Merck Sharp & Dohme Corp., priority 2015, dated 2019).

target: T1, human M4 muscarinic acetylcholine receptor (Homo sapiens, UniProt P08173); assay: human FLIPR-based M4 PAM assay (Ca2+ mobilization, CHO-K1 cells with human M4 receptor and Gαqi5); type: cell-based; details: acetylcholine at 20% of maximum response, read-out: M4 PAM IP
T1 construct: expressed in transfected cells; host or cells: CHO-K1
T1 sequence (P08173 1-479): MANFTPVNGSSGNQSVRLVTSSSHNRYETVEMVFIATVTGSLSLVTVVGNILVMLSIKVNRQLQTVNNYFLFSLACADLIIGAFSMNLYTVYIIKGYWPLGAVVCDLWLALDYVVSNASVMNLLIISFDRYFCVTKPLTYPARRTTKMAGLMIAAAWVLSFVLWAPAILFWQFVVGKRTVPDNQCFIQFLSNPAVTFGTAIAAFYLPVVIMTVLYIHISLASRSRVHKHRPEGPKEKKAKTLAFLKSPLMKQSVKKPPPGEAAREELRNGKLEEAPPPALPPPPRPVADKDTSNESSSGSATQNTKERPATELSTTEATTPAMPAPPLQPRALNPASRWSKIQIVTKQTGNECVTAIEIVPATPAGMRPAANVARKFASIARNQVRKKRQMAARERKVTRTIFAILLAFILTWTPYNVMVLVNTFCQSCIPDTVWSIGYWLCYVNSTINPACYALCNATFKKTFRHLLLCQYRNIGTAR
Outline: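 Calcium-mobilization (FLIPR) readout in dye-loaded CHO-K1 cells co-expressing human M4 receptor and Gαqi5. Potentiation measured against acetylcholine at a concentration giving 20% of maximal response, with an optional 70% addition; the reported value is the curve inflection point from a 4-parameter logistic fit.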

EC50 [nM]	SMILES
2580	Cc1cc2c(nc1N1CCC(Oc3ccc4nc(C)n(C)c4c3)CC1)CNC2=O [Example 210, 2-(4-((1,2-dimethyl-1H-benzo[d]imidazol-6-yl)oxy)piperidin-1-yl)-3-methyl-6,7-dihydro-5H-pyrrolo[3,4-b]pyridin-5-one]
216	COC(=O)Cn1ncc2cc(OC3CCN(c4nc5c(cc4C)C(=O)NC5)CC3)ccc21 [Example 211, methyl 2-(5-((1-(3-methyl-5-oxo-6,7-dihydro-5H-pyrrolo[3,4-b]pyridin-2-yl)piperidin-4-yl)oxy)-1H-indazol-1-yl)acetate]
1830	COC(=O)c1c(C)c(N2CCC(Oc3ccc4c(c3)COC4)CC2)nc2c1C(=O)NC2 [Example 212, methyl 2-(4-((1,3-dihydro-2-benzofuran-5-yl)oxy)piperidin-1-yl)-3-methyl-5-oxo-6,7-dihydro-5H-pyrrolo[3,4-b]pyridine-4-carboxylate]
38	COc1ccc(OC2CCN(c3nc4c(c(C)c3C)C(=O)NC4)CC2)cn1 [Example 218, 2-(4-((6-Methoxypyridin-3-yl)oxy)piperidin-1-yl)-3,4-dimethyl-6,7-dihydro-5H-pyrrolo[3,4-b]pyridin-5-one]
46	Cc1c(N2CC[C@H](OCC3(C)CC3)[C@@H](F)C2)nc2c(c1C)C(=O)NC2 [Example 219A, 2-((3S,4S)-3-fluoro-4-((1-methylcyclopropyl)methoxy)piperidin-1-yl)-3,4-dimethyl-6,7-dihydro-5H-pyrrolo[3,4-b]pyridin-5-one]
1080	COc1ccc(OC2CCN(c3nc4c(cc3C3CC3)C(=O)NC4)CC2)cn1 [Example 221, 3-cyclopropyl-2-(4-((6-methoxypyridin-3-yl)oxy)piperidin-1-yl)-6,7-dihydro-5H-pyrrolo[3,4-b]pyridin-5-one]
50	C=Cc1cc2c(nc1N1CCC(Oc3ccc(OC)nc3)CC1)CNC2=O [Example 222, 2-(4-((6-methoxypyridin-3-yl)oxy)piperidin-1-yl)-3-vinyl-6,7-dihydro-5H-pyrrolo[3,4-b]pyridin-5-one]
3520	Cc1cc(N2CCC(OCC3(C)CC3)CC2)nc2c1C(=O)NC2 [Example 224, 4-methyl-2-(4-((1-methylcyclopropyl)methoxy)piperidin-1-yl)-6,7-dihydro-5H-pyrrolo[3,4-b]pyridin-5-one]
36	CCc1cc2c(nc1N1CCC(OCC3(C)CC3)CC1)CNC2=O [Example 229, 3-ethyl-2-(4-((1-methylcyclopropyl)methoxy)piperidin-1-yl)-6,7-dihydro-5H-pyrrolo[3,4-b]pyridin-5-one]
51	Cc1cc2c(nc1N1CCC(Oc3ccccc3)CC1)CN(CCO)C2=O [Example 231, 6-(2-Hydroxyethyl)-3-methyl-2-(4-phenoxypiperidin-1-yl)-6,7-dihydro-5H-pyrrolo[3,4-b]pyridin-5-one]
81	CCN1Cc2nc(N3CCC(Oc4ccc(OC)nc4)CC3)c(C)cc2C1=O [Example 232, 6-Ethyl-2-(4-((6-methoxypyridin-3-yl)oxy)piperidin-1-yl)-3-methyl-6,7-dihydro-5H-pyrrolo[3,4-b]pyridin-5-one]
394	CCC1c2nc(N3CCC(Oc4ccc(OC)nc4)CC3)c(C)cc2C(=O)N1CC (stereo not shown) [Example 233, 6,7-Diethyl-2-(4-((6-methoxypyridin-3-yl)oxy)piperidin-1-yl)-3-methyl-6,7-dihydro-5H-pyrrolo[3,4-b]pyridin-5-one]
317	Cc1cc2c(nc1N1CCC(Oc3cccc(C#N)c3)CC1)CN(CCN(C)C)C2=O [Example 236, 3-((1-(6-(2-(dimethylamino)ethyl)-3-methyl-5-oxo-6,7-dihydro-5H-pyrrolo[3,4-b]pyridin-2-yl)piperidin-4-yl)oxy)benzonitrile]

More lines, now with the values behind:

SMILES	EC50 [nM]
CCc1cc2c(nc1N1CCC(Oc3cnc4c(c3)COC4)CC1)CNC2=O [Example 212A, 2-(4-((5,7-dihydrofuro[3,4-b]pyridin-3-yl)oxy)piperidin-1-yl)-3-ethyl-6,7-dihydro-5H-pyrrolo[3,4-b]pyridin-5-one]	116
CCc1cc2c(nc1N1CCC(Oc3ccc4c(c3)COC4)CC1)CNC2=O [Example 213, 2-(4-((1,3-dihydro-2-benzofuran-5-yl)oxy)piperidin-1-yl)-3-ethyl-6,7-dihydro-5H-pyrrolo[3,4-b]pyridin-5-one]	61
CCc1cc2c(nc1N1CC[C@@H](Oc3cnc4c(c3)COC4)[C@H](F)C1)CNC2=O [Example 213A, 2-((3R,4R)-4-((5,7-dihydrofuro[3,4-b]pyridin-3-yl)oxy)-3-fluoropiperidin-1-yl)-3-ethyl-6,7-dihydro-5H-pyrrolo[3,4-b]pyridin-5-one]	126
CCc1cc2c(nc1N1CC[C@@H](Oc3ccc4c(c3)COC4)[C@@H](F)C1)CNC2=O [Example 214, 2-((3S,4R)-4-((1,3-dihydro-2-benzofuran-5-yl)oxy)-3-fluoropiperidin-1-yl)-3-ethyl-6,7-dihydro-5H-pyrrolo[3,4-b]pyridin-5-one]	93
Cc1cc2c(nc1N1CCC(Oc3cnc4c(c3)OCC4)CC1)CNC2=O [Example 216A, 2-(4-((2,3-dihydrofuro[3,2-b]pyridin-6-yl)oxy)piperidin-1-yl)-3-methyl-6,7-dihydro-5H-pyrrolo[3,4-b]pyridin-5-one]	288
CCc1cc2c(nc1N1CC[C@@H](Oc3ccc4c(c3)COC4)[C@H](F)C1)CNC2=O [Example 217, 2-((3R,4R)-4-((1,3-dihydro-2-benzofuran-5-yl)oxy)-3-fluoropiperidin-1-yl)-3-ethyl-6,7-dihydro-5H-pyrrolo[3,4-b]pyridin-5-one]	42
Cc1c(N2CCC(OCC3(C)CC3)CC2)nc2c(c1C)C(=O)NC2 [Example 219, 3,4-dimethyl-2-(4-((1-methylcyclopropyl)methoxy)piperidin-1-yl)-6,7-dihydro-5H-pyrrolo[3,4-b]pyridin-5-one]	25
COCCOc1ccc(OC2CCN(c3nc4c(c(C)c3C)C(=O)NC4)CC2)cn1 [Example 220, 2-(4-((6-(2-methoxyethoxy)pyridin-3-yl)oxy)piperidin-1-yl)-3,4-dimethyl-6,7-dihydro-5H-pyrrolo[3,4-b]pyridin-5-one]	109
Cc1cncc(OC2CCN(c3nc4c(c(C)c3C)C(=O)NC4)CC2)c1 [Example 220A, 3,4-dimethyl-2-(4-((5-methylpyridin-3-yl)oxy)piperidin-1-yl)-6,7-dihydro-5H-pyrrolo[3,4-b]pyridin-5-one]	83
COc1ccc(OC2CCN(c3nc4c(cc3C#N)C(=O)NC4)CC2)cn1 [Example 223, 2-(4-((6-methoxypyridin-3-yl)oxy)piperidin-1-yl)-5-oxo-6,7-dihydro-5H-pyrrolo[3,4-b]pyridine-3-carbonitrile]	344
Cc1c(N2CC[C@@H](Oc3ccc4c(c3)COC4)[C@@H](F)C2)nc2c(c1C)C(=O)NC2 [Example 225, 2-((3S,4R)-4-((1,3-dihydro-2-benzofuran-5-yl)oxy)-3-fluoropiperidin-1-yl)-3,4-dimethyl-6,7-dihydro-5H-pyrrolo[3,4-b]pyridin-5-one]	19
O=C1NCc2nc(N3CCC(Oc4ccc5c(c4)COC5)CC3)c(Br)cc21 [Example 226, 3-bromo-2-(4-((1,3-dihydro-2-benzofuran-5-yl)oxy)piperidin-1-yl)-6,7-dihydro-5H-pyrrolo[3,4-b]pyridin-5-one]	136
Cc1c(N2CCC(Oc3cnc4c(c3)COC4)CC2)nc2c(c1C)C(=O)NC2 [Example 227, 2-(4-((5,7-dihydrofuro[3,4-b]pyridin-3-yl)oxy)piperidin-1-yl)-3,4-dimethyl-6,7-dihydro-5H-pyrrolo[3,4-b]pyridin-5-one]	435
CCc1cc2c(nc1N1CCC(Oc3ccc(OC)nc3)CC1)CNC2=O [Example 228, 3-Ethyl-2-(4-((6-methoxypyridin-3-yl)oxy)piperidin-1-yl)-6,7-dihydro-5H-pyrrolo[3,4-b]pyridin-5-one]	86
CCc1c(C)c(N2CCC(Oc3ccc(OC)nc3)CC2)nc2c1C(=O)NC2 [Example 229A, 4-ethyl-2-(4-((6-methoxypyridin-3-yl)oxy)piperidin-1-yl)-3-methyl-6,7-dihydro-5H-pyrrolo[3,4-b]pyridin-5-one]	600
COc1ccc(OC2CCN(c3nc4c(cc3C(F)(F)F)C(=O)NC4)CC2)cn1 [Example 230, 2-(4-((6-Methoxypyridin-3-yl)oxy)piperidin-1-yl)-3-(trifluoromethyl)-6,7-dihydro-5H-pyrrolo[3,4-b]pyridin-5-one]	2120
CCOc1ccc(OC2CCN(c3nc4c(cc3C)C(=O)N[C@H]4CCO)CC2)cn1 [Example 234A, (S)-2-(4-((6-Ethoxypyridin-3-yl)ox)piperidin-1-yl)-7-(2-hydroxyethyl)-3-methyl-6,7-dihydro-5H-pyrrolo[3,4-b]pyridin-5-one]	382
COc1ccc(OC2CCN(c3nc4c(cc3C)C(=O)N(CCN(C)C)C4)CC2)cn1 [Example 235, 6-(2-(dimethylamino)ethyl)-2-(4-((6-methoxypyridin-3-yl)oxy)piperidin-1-yl)-3-methyl-6,7-dihydro-5H-pyrrolo[3,4-b]pyridin-5-one]	324
